Measured values taken from publication PMC7915026, “Sulfaguanidine Hybrid with Some New Pyridine-2-One Derivatives: Design, Synthesis, and Antimicrobial Activity against Multidrug-Resistant Bacteria as Dual DNA Gyrase and DHFR Inhibitors” (Antibiotics, 2021).
In brackets after ≈: the same amount, converted by molar mass. Read-outs that look alike come from different tables or passages of the source.

Legend:
[1] = tested on: B. subtilis ATCC 6633; test: MIC and MBC determination; assay type: cell-based; conditions: B. subtilis
[2] = tested on: P. aeruginosa ATCC 27853; test: MIC and MBC determination; assay type: cell-based; conditions: Pseudomonas aeruginosa, ATCC27853, P. aeruginosa
[3] = tested on: MDRB strains; test: MIC and MBC, ranges over the MDRB panel; assay type: cell-based; conditions: four MDRB strains
Source text: (§1) Norfloxacin was used as a positive control for the multidrug resistance study.
(§2) The experiment was repeating for three-times.

[4] = tested on: Salmonella typhi (S. typhi ATCC 6539); test: microbe, parasite or virus in culture; assay type: cell-based; conditions: Salmonella enterica, Salmonella typhi
[5] = tested on: S. aureus ATCC 33591; test: MIC and MBC against multidrug-resistant strains; assay type: cell-based; conditions: Staphylococcus aureus, ATCC33591, S. aureus ATCC 33591
Source text: as §1, §2

[6] = tested on: P. aeruginosa ATCC BAA-2111; test: MIC and MBC against multidrug-resistant strains; assay type: cell-based; conditions: P. aeruginosa ATCC BAA-2111
Source text: as §1, §2

[7] = tested on: S. aureus ATCC 43300; test: MIC and MBC against multidrug-resistant strains; assay type: cell-based; conditions: Staphylococcus aureus, ATCC43300, S. aureus ATCC 43300
Source text: as §1, §2

[8] = tested on: E. coli ATCC BAA-196; test: MIC and MBC against multidrug-resistant strains; assay type: cell-based; conditions: E. coli ATCC BAA-196
Source text: as §1, §2

[9] = tested on: E. faecalis ATCC 29212; test: MIC and MBC determination; assay type: cell-based; conditions: Enterococcus faecalis, ATCC29212, E. faecalis
[10] = tested on: E. coli ATCC 25922; test: MIC and MBC determination; assay type: cell-based; conditions: E. coli
[11] = biological target: E. coli DHFR (dihydrofolate reductase) (Escherichia coli, UniProt P0ABQ4); test: In vitro DHFR enzymatic assay; assay type: biochemical
[12] = tested on: S. aureus ATCC 29213; test: MIC and MBC determination; assay type: cell-based; conditions: S. aureus
[13] = tested on: F. oxysporum (RCMB 008002); test: MIC and MFC determination; assay type: cell-based
[14] = biological target: S. aureus DNA gyrase (Staphylococcus aureus, UniProt P0A0K8+P20831); test: In vitro DNA gyrase supercoiling enzymatic assay; assay type: biochemical
[15] = tested on: P. aeruginosa ATCC 27853; test: Inhibition zone, paper disk/agar diffusion; assay type: cell-based; conditions: P. aeruginosa; Na = no activity
In short: (§3)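 Agar diffusion; IZ diameter in mm. Positive control: norfloxacin.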

[16] = tested on: F. oxysporum (RCMB 008002); test: Inhibition zone, paper disk/agar diffusion; assay type: cell-based; conditions: Na = no activity
In short: as §3

[17] = tested on: E. faecalis ATCC 29212; test: Inhibition zone, paper disk/agar diffusion; assay type: cell-based; conditions: E. faecalis; Na = no activity
In short: as §3

[18] = tested on: C. albicans (ATCC 10231); test: Inhibition zone, paper disk/agar diffusion; assay type: cell-based; conditions: Na = no activity
In short: as §3

[19] = tested on: E. coli ATCC 25922; test: Inhibition zone, paper disk/agar diffusion; assay type: cell-based; conditions: E. coli; Na = no activity
In short: as §3

[20] = tested on: S. aureus ATCC 29213; test: Inhibition zone, paper disk/agar diffusion; assay type: cell-based; conditions: S. aureus; Na = no activity
In short: as §3

[21] = tested on: S. typhi ATCC 6539; test: Inhibition zone, paper disk/agar diffusion; assay type: cell-based; conditions: S. typhi; Na = no activity
In short: as §3

[22] = tested on: S. aureus ATCC 33591; test: Inhibition zone against multidrug-resistant bacteria; assay type: cell-based; conditions: MDRB S. aureus ATCC 33591
In short: as §3

[23] = tested on: P. aeruginosa ATCC BAA-2111; test: as above; assay type: cell-based; conditions: MDRB P. aeruginosa ATCC BAA-2111
In short: as §3

[24] = tested on: S. aureus ATCC 43300; test: as above; assay type: cell-based; conditions: MDRB S. aureus ATCC 43300
In short: as §3

[25] = tested on: E. coli ATCC BAA-196; test: as above; assay type: cell-based; conditions: MDRB E. coli ATCC BAA-196
In short: as §3

[26] = tested on: neutrophils; test: In vitro intracellular killing, nitro blue tetrazolium (NBT) reduction assay; assay type: cell-based
Protocol: One of the broad methods used for determining immune disorders for patients in hospitals is the NBT test to measure their immune responses. The reduction in NBT dye provides information about the phagocytic and intracellular killing functions of neutrophils, which are important for microbiocidal activity. The most promising derivatives (2a, 2b, 2d, 3a, 8, and 11) were evaluated against in vitro intracellular killing activities using a nitro blue tetrazolium (NBT) reduction assay and the obtained results expressed in percentage (%): increasing the percentage led to an improvement in the killing ability of the neutrophils used as innate immunity.
In vitro intracellular killing activities for the most promising six derivatives 2a, 2b, 2d, 3a, 8, and 11 were performed according to reported methods.

[27] = tested on: C. albicans (ATCC 10231); test: MIC and MFC determination; assay type: cell-based

Chain of E. coli DHFR (dihydrofolate reductase) (P0ABQ4 whole entry): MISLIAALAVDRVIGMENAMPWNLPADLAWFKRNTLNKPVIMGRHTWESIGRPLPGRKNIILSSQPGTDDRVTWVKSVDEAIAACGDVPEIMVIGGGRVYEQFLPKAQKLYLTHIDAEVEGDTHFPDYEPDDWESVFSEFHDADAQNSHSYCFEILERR
Chain of S. aureus DNA gyrase (P20831 whole entry, the tested form may be a part): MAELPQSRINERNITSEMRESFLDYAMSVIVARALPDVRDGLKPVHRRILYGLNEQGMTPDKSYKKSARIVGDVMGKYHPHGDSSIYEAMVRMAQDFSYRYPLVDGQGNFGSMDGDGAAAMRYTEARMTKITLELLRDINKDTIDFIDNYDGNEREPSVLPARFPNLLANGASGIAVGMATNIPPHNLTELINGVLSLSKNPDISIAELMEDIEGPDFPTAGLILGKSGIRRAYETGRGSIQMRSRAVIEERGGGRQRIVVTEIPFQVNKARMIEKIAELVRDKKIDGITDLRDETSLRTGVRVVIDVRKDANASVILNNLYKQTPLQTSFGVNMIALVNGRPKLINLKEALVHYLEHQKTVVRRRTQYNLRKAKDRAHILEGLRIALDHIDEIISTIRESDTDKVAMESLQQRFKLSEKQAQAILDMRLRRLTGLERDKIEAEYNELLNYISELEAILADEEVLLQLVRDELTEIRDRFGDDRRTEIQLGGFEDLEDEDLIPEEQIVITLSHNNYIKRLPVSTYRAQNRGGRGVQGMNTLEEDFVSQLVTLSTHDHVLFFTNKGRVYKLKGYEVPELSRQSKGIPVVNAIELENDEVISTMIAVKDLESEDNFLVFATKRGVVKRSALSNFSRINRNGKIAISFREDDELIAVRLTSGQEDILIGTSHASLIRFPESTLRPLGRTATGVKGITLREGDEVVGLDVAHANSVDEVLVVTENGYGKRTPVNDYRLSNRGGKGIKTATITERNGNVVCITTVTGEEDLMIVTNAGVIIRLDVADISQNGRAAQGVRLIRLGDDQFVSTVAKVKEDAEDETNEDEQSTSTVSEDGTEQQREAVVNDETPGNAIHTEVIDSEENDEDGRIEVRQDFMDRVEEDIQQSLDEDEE
Chain of S. aureus DNA gyrase (P0A0K8 whole entry, the tested form may be a part): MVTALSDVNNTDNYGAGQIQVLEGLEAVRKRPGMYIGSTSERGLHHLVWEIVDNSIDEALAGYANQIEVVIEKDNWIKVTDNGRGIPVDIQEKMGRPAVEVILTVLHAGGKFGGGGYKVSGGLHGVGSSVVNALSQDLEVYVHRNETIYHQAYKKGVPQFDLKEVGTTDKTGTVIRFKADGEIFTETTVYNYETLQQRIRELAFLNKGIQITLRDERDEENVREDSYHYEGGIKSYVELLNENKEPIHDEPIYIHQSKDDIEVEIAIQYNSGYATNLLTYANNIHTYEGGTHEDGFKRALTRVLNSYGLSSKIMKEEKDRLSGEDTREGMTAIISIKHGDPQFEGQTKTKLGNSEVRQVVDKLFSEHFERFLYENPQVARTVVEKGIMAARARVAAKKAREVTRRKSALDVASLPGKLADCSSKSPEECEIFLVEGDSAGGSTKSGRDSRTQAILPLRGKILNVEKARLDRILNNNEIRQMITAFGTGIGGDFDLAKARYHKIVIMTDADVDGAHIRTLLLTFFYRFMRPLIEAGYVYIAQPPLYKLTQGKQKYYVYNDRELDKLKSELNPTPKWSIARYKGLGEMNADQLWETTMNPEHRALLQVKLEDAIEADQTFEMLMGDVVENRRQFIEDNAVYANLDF

## COc1ccc(/C=C(\C#N)C(=O)Nc2ccc(S(=O)(=O)NC(=N)N)cc2)cc1O [Compound 2d, N-(4-(N-Carbamimidoylsulfamoyl)phenyl)-2-cyano-3-(3-hydroxy-4-methoxyphenyl) acryl-amide]
[1]
  MBC: 9.38 ± 0.96 µM (≈ 3.9 µg/mL)
  MIC: 4.69 ± 0.98 µM (≈ 1.95 µg/mL)
[1]; Bacillus subtilis, ATCC6633, read-out: MBC
  MBC: 9.38 µM (≈ 3.9 µg/mL)
[1]; Bacillus subtilis, ATCC6633, read-out: MIC
  MIC: 4.69 µM (≈ 1.95 µg/mL)
[2]; read-out: MBC
  MBC: 25.5 ± 0.65 µM (≈ 10.6 µg/mL)
[2]; read-out: MIC
  MIC: 13.4 ± 0.25 µM (≈ 5.57 µg/mL)
[3]
  MBC range: 9.38 to 18.77 µM
  MIC range: 4.69 to 9.38 µM
[4]; read-out: MBC
  MBC: 30.1 ± 0.75 µM (≈ 12.5 µg/mL)
[4]; read-out: MIC
  MIC: 18.8 ± 0.85 µM (≈ 7.81 µg/mL)
[5]; read-out: MBC
  MBC: 18.8 ± 0.25 µM (≈ 7.8 µg/mL)
[5]; read-out: MIC
  MIC: 9.38 ± 0.32 µM (≈ 3.9 µg/mL)
[6]
  MBC: 18.77 ± 0.61 µM (≈ 7.8 µg/mL)
  MIC: 9.38 ± 0.49 µM (≈ 3.9 µg/mL)
[6]; Pseudomonas aeruginosa, ATCCBAA2111, read-out: MBC
  MBC: 18.8 µM (≈ 7.8 µg/mL)
[6]; Pseudomonas aeruginosa, ATCCBAA2111, read-out: MIC
  MIC: 9.38 µM (≈ 3.9 µg/mL)
[7]; read-out: MBC
  MBC: 9.38 ± 0.41 µM (≈ 3.9 µg/mL)
[7]; read-out: MIC
  MIC: 4.69 ± 0.25 µM (≈ 1.95 µg/mL)
[8]
  MBC: 9.38 ± 0.54 µM (≈ 3.9 µg/mL)
  MIC: 4.69 ± 0.36 µM (≈ 1.95 µg/mL)
[8]; Escherichia coli, ATCCBAA196, read-out: MBC
  MBC: 9.38 µM (≈ 3.9 µg/mL)
[8]; Escherichia coli, ATCCBAA196, read-out: MIC
  MIC: 4.69 µM (≈ 1.95 µg/mL)
[9]; read-out: MBC
  MBC: 15.9 ± 0.58 µM (≈ 6.63 µg/mL)
[9]; read-out: MIC
  MIC: 9.38 ± 0.24 µM (≈ 3.9 µg/mL)
[10]
  MBC: 4.66 ± 0.21 µM (≈ 1.94 µg/mL)
  MIC: 2.33 ± 0.32 µM (≈ 0.968 µg/mL)
[10]; Escherichia coli, ATCC25922, read-out: MBC
  MBC: 4.66 µM (≈ 1.94 µg/mL)
[10]; Escherichia coli, ATCC25922, read-out: MIC
  MIC: 2.33 µM (≈ 0.968 µg/mL)
[11]
  IC50: 4.33 ± 0.18 µM
[11]; E. coli DHFR IC50
  fold relative to trimethoprim: 1.19 fold
[12]
  MBC: 13.40 ± 0.54 µM (≈ 5.57 µg/mL)
  MIC: 13.40 ± 0.98 µM (≈ 5.57 µg/mL)
[12]; Staphylococcus aureus, ATCC29213, read-out: MBC
  MBC: 13.4 µM (≈ 5.57 µg/mL)
[12]; Staphylococcus aureus, ATCC29213, read-out: MIC
  MIC: 13.4 µM (≈ 5.57 µg/mL)
[13]
  MFC: 66.84 ± 0.85 µM (≈ 27.8 µg/mL)
  MFC/MIC: <2
  MIC: 37.60 ± 0.25 µM (≈ 15.6 µg/mL)
[13]; Fusarium oxysporum, RCMB008002, read-out: MFC
  MFC: 66.8 µM (≈ 27.8 µg/mL)
[13]; Fusarium oxysporum, RCMB008002, read-out: MIC
  MIC: 37.6 µM (≈ 15.6 µg/mL)
[14]
  IC50: 18.2 ± 1.18 µM
[15]
  Mean Diameter of the Inhibition Zone: 27 ± 0.73 mm
[16]
  Mean Diameter of the Inhibition Zone: 22 ± 0.11 mm
[17]
  Mean Diameter of the Inhibition Zone: 29 ± 0.17 mm
[18]
  Mean Diameter of the Inhibition Zone: 27 ± 0.50 mm
[19]
  Mean Diameter of the Inhibition Zone: 30 ± 0.29 mm
[20]
  Mean Diameter of the Inhibition Zone: 33 ± 0.53 mm
[21]
  Mean Diameter of the Inhibition Zone: 29 ± 0.20 mm
[22]
  Mean Diameter of Inhibition Zone: 24 ± 0.32 mm
[23]
  Mean Diameter of Inhibition Zone: 26 ± 0.41 mm
[24]
  Mean Diameter of Inhibition Zone: 27 ± 0.3 mm
[25]
  Mean Diameter of Inhibition Zone: 25 ± 0.86 mm
[26]
  Intracellular Killing Activity: 142.4 ± 0.98%
[27]
  MFC: 37.60 ± 0.38 µM (≈ 15.6 µg/mL)
  MFC/MIC: <2
  MIC: 18.80 ± 0.65 µM (≈ 7.81 µg/mL)
[27]; Candida albicans, ATCC10231, read-out: MFC
  MFC: 37.6 µM (≈ 15.6 µg/mL)
[27]; Candida albicans, ATCC10231, read-out: MIC
  MIC: 18.8 µM (≈ 7.81 µg/mL)
